# Laboratory results published in patent US10603335B2, “Cancer treatment combination compositions, methods and uses” (Board of Supervisors of Louisiana State University and …, priority 2016, dated 2020).
# Columns and labels:
# [1] = tested on: cleaved PARP, XIAP and cIAP2 in MiaPaca-2 cells; experiment: Western blot of apoptosis markers and inhibitors of apoptosis, MiaPaca-2; format: cell-based, human; settings: for apoptosis marker cleaved PARP: 24 h post-treatment, LHRH-curcumin 10-100 uM, gemcitabine 1-20 uM
# Method: (§1) Pancreatic cells were collected after trypsinization and seeded in 12-well plates for 24 h before treatments. Treatments were performed as described in the Figure legends. Following treatment, whole cell lysates were collected in Laemmli buffer and analyzed by Western blot. The following primary antibodies were used: XIAP, c-IAP2, cleaved PARP, Caspase-3 (all from Cell Signaling), actin (Santa Cruz) and LHRHR (Abcam).
# (§2) Western blot analysis. Actin, GAPDH and Ponceau staining were used as loading controls. Gemcitabine was diluted in water. Curcumin and LHRH-curcumin were diluted in DMSO. Cells were treated as follows:
# (§3) Western blot analysis. Actin, GAPDH and Ponceau staining were used as loading controls. Gemcitabine was diluted in water. Curcumin and LHRH-curcumin were diluted in DMSO. The cells were treated as follows:
# (§4) Western blot analysis. Actin was used as loading control. Both gemcitabine and LHRH-curcumin were diluted in water.
# PATX113 tissue slices = experiment: Live Tissue Sensitivity Assay (LTSA), PATX113; format: cell-based; settings: 72 hours
# Method: (§5) Animal experiment protocol was reviewed and approved by The University of Texas MD Anderson Cancer Center (Houston, Tex.) institutional review board and in accordance with the Guidelines for the Care and Use of Laboratory Animals published by the National Institutes of Health. PDXs were grown from cryopreserved early passages of PDXs in nude mice as described in previous publications (Kim M P, et al, Nat Protoc 2009; 4(11): 1670-80). Briefly, tumor samples stored in CryoStor™ CS10 storage medium were recovered and cut into about 2 mm3 fragments, soaked in Matrigel, and implanted into the subcutaneous space of Balb/c nude mice (5 mice/PDX). Tumors were harvested when they reach 1.5 cm in diameter for generating tissue slices for drug testing with quadruplicates.
# (§6) About 100 tissue slices were produced from 1 tumorgraft with tissue slicer and arrayed in 96-well plates with previously established method (Roife D, et al, Clin Cancer Res 2016). […] Same volume of medium with 0.1% DMSO was added into control wells. After 72 hours, tissue viabilities were measured with PrestoBlue method. Viability inhibition will be calculated through normalization of viabilities of tissue slices treated with inhibitor against the viability of control (DMSO treated) slices. Inhibition of viability was further analyzed with t-test. […]
# PATX102 tissue slices = experiment: Live Tissue Sensitivity Assay (LTSA), PATX102; format: cell-based; settings: 72 hours
# Method: as §5, §6
# [2] = Body weight of tumor-bearing mice during treatment; settings: IP
# Method: (§7) Male SCID/bg mice (5 weeks old; Taconic Biosciences, NY) were housed in the standard mouse Plexiglas cages in a room maintained at constant temperature and humidity under a 12 h light and darkness cycle. The experimental protocol was reviewed and approved by the Institutional Animal Care and Use Committee at the LSUHSC Shreveport.
# (§8) The vehicle treated group received an equivalent amount of PBS. Tumor volumes were measured with calipers once a week and body weights of mice were measured once a week. Tumor volumes were calculated by the formula: V(mm3)=(length×width*2)/2, in which width was the shortest measurement in millimeters. Mice were necropsied 10 days after the last treatment for the low dose treatment (day 35 after the randomization and day 55 from the tumor cell implantation) or 2 days after the last treatment for high dose treatment (day 28 after the randomization and 48 from the tumor cell implantation). Tumors were dissected, weighed and photographed.
# PATX50 tissue slices = experiment: Live Tissue Sensitivity Assay (LTSA), PATX50; format: cell-based; settings: 72 hours
# Method: as §5, §6
# [3] = tested on: Mia-PaCa-2 cancer cell xenografts; experiment: Mia-PaCa-2 subcutaneous xenograft tumor growth; format: in vivo, SCID/bg mice; settings: IP
# Method: as §7
# Mia-PaCa-2 cells were harvested from cell cultures after trypsinization. The cells were washed once in serum-free medium and re-suspended in HBSS. Only suspensions consisting of single cells with >90% viability were used for the injections. Mice were injected s.c. on the right hind flank with 5×10^6 MIA-PaCa cells (ATCC, VA) in 50% Matrigel/HBSS with 26 Ga syringes.
# as §8
# Panc-1 cells spheroids = experiment: 3D spheroid growth (IncuCyte ZOOM), Panc-1; format: cell-based
# Method: A protocol that enables the growth of identical size single cancer cell spheroids in Matrigel in 96 well plates has been developed.
# Panc-1 and Mia-Paca-2 cells were grown in 10% FBS DMEM. Cells were collected after trypsinization and resuspended in phenol-red free DMEM with 10% FBS. Cells were labeled with CellTracker Red (Life Techmologies) for 5 minutes. After labeling cells were washed with PBS and transfer into 96-well Corning 7007 ULA round bottom plates at 1,000 cells/well in 100 μl phenol-red free media with 10% FBS and 5% Matrigel. […] Spheroids were grown at 37° C. and 5% CO2 in IncuCyte ZOOM (Essen Bioscience). Images were acquired every 4 h for a period of 120 h post-treatment and software analysis was design to identify the red object in the well. The data were expressed as fold increase in spheroids size at the end of the treatment using the “average red object area in the well” as determined by the IncuCyte software analysis. Reproducibility was confirmed in three independent experiments. Spheroids grew at a uniform rate (FIG. 1).
# [4] = tested on: cleaved PARP, XIAP and cIAP2 in Panc-1 cells; experiment: Western blot of apoptosis markers and inhibitors of apoptosis, Panc-1; format: cell-based; settings: for apoptosis marker cleaved PARP: 24 h post-treatment, LHRH-curcumin 10-100 uM, gemcitabine 1-20 uM
# Method: as §1, §2, §3, §4
# PATX112 tissue slices = experiment: Live Tissue Sensitivity Assay (LTSA), PATX112; format: cell-based; settings: 72 hours
# Method: as §5, §6
# PATX148 tissue slices = experiment: Live Tissue Sensitivity Assay (LTSA), PATX148; format: cell-based; settings: 72 hours
# Method: as §5, §6
# [5] = tested on: cleaved PARP, XIAP and cIAP2 in PATC53 cells; experiment: Western blot of apoptosis markers, PATC53; format: cell-based
# Method: PATC53 cells were treated as described and Western blot was perform in order to detect apoptosis markers (cleaved PARP) and inhibitors of apoptosis (XIAP and cIAP2) 24 h post-treatment. Actin was used as loading controls.
# PATC53 cells were treated as presented and Western blot was perform in order to detect apoptosis markers (cleaved PARP) and inhibitors of apoptosis (XIAP and cIAP2) 48 h post-treatment. Actin was used as loading controls.
# as §1, with “Pancreatic cancer” for “Pancreatic”, “treatment whole-cell” for “treatment, whole cell”, “used:” for “used: XIAP, c-IAP2,”, “c-IAP2, XIAP, cleaved Parp-1” for “Caspase-3”, “Cruz).” for “Cruz) and LHRHR (Abcam).”
# [6] = 24 h, 50 uM in the presence of gemcitabine (5 uM)
# [7] = 24 h, curcumin, LHRH-curcumin 50 uM and 100 uM alone, gemcitabine alone
# [8] = 72 h, LHRH-curcumin 10 uM and 20 uM in the presence of gemcitabine (5 uM and 10 uM)
# [9] = high doses: gemcitabine 100 mg/kg once a week, LHRH-curcumin 40 mg/kg twice a week
# [10] = low doses: gemcitabine 50 mg/kg once a week, LHRH-curcumin 20 mg/kg twice a week
# [11] = high doses: gemcitabine 100 mg/kg once a week, LHRH-curcumin 40 mg/kg twice a week, day 48
# [12] = low doses: gemcitabine 50 mg/kg once a week, LHRH-curcumin 20 mg/kg twice a week, day 55
# [13] = gemcitabine 0.5, 1.0, 5.0 μM, LHRH-curcumin 10, 20 μM, 5 days
structure (smiles),measurement,setting,value
"COc1cc(/C=C/C(=O)CC(=O)/C=C/c2ccc(OC(=O)CCCC(=O)NCCCC[C@@H](NC(=O)[C@H](Cc3ccc(O)cc3)NC(=O)[C@H](CO)NC(=O)[C@H](Cc3c[nH]c4ccccc34)NC(=O)[C@H](Cc3c[nH]cn3)NC(=O)[C@@H]3CCC(=O)N3)C(=O)N[C@@H](CC(C)C)C(=O)N[C@@H](CCCNC(=N)N)C(=O)N3CCC[C@H]3C(=O)NCC(N)=O)c(OC)c2)ccc1O [LHRH-curcumin, [DLys6]-LHRH-Curcumin]",XIAP and c-IAP2 protein levels,[1]; [6],down-regulated
same,XIAP and c-IAP2 protein levels,[1]; [7],down-regulated
same,apoptosis marker cleaved PARP,[1]; curcumin,initiate apoptosis as illustrated by the presence of cleaved PARP
same,XIAP and c-IAP2 protein levels,[1]; [8],down-regulated
same,Sensitivity To LHRH-C,PATX113 tissue slices; single agent,Sensitive (The tissue was defined as sensitive to the treatment if both p<0.05 and at least 30% of tissue slice viability on average was inhibited)
same,Sensitivity To LHRH-C,PATX102 tissue slices; single agent,Resistant
same,body weight or body condition,[2]; [9],does not negatively impact body weight or body condition
same,body weight or body condition,[2]; [10],does not negatively impact body weight or body condition
same,Sensitivity To LHRH-C,PATX50 tissue slices; single agent,Resistant
same,Tumor volume at necropsy,[3]; [11],significantly reduced
same,Tumor volume at necropsy,[3]; [12],significantly reduced
same,effectiveness on spheroids growth versus curcumin,"Panc-1 cells spheroids; 3D culture, 10, 20 and 30 μM, 120 h",more effective than curcumin
same,size of the spheroids,"Panc-1 cells spheroids; 10, 20 and 30 μM, 120 h post-treatment",significantly decreased the size of the spheroids formed by Panc-1 cells in a dose-dependent manner
same,spheroids growth,"Panc-1 cells spheroids; LHRH 30 μM, LHRH-curcumin 30 μM",superior to that of LHRH
same,size of the spheroids,Panc-1 cells spheroids; [13],decrease the size of the spheroids
same,XIAP and c-IAP2 protein levels,[4]; [6],down-regulated
same,XIAP and c-IAP2 protein levels,[4]; [7],down-regulated
same,apoptosis marker cleaved PARP,[4]; curcumin,initiate apoptosis as illustrated by the presence of cleaved PARP
same,XIAP and c-IAP2 protein levels,[4]; [8],down-regulated
same,Sensitivity To LHRH-C,PATX112 tissue slices; single agent,Sensitive (The tissue was defined as sensitive to the treatment if both p<0.05 and at least 30% of tissue slice viability on average was inhibited)
same,Sensitivity To LHRH-C,PATX148 tissue slices; single agent,Resistant
same,apoptosis inhibitors (XIAP and cIAP2),"[5]; 48 h post-treatment, 30 μM",Modest reduction of apoptosis inhibitors
"Nc1ccn([C@@H]2O[C@H](CO)[C@@H](O)C2(F)F)c(=O)n1 [gemcitabine, 2′,2′-difluoro 2′deoxycytidine, reference compound]",XIAP and c-IAP2 protein levels,[1]; [7],doesn't affect XIAP and c-IAP2 levels
same,apoptosis marker cleaved PARP,[1]; curcumin,no cleaved PARP was detected
same,tissue slice viability,PATX113 tissue slices; Gem 10 μM,82.19
same,tissue slice viability,PATX102 tissue slices; Gem 10 μM,99.65
same,body weight or body condition,[2]; [9],does not negatively impact body weight or body condition
same,body weight or body condition,[2]; [10],does not negatively impact body weight or body condition
same,tissue slice viability,PATX50 tissue slices; Gem 10 μM,104.96
same,Tumor volume at necropsy,[3]; [11],significantly reduced
same,Tumor volume at necropsy,[3]; [12],significantly reduced
same,size of the spheroids,Panc-1 cells spheroids; [13],decrease the size of the spheroids
same,XIAP and c-IAP2 protein levels,[4]; [7],doesn't affect XIAP and c-IAP2 levels
same,apoptosis marker cleaved PARP,[4]; curcumin,no cleaved PARP was detected
same,tissue slice viability,PATX112 tissue slices; Gem 10 μM,91.71
same,tissue slice viability,PATX148 tissue slices; Gem 10 μM,99.55
same,response of PATC53 cells (apoptosis markers),[5]; 24 h post-treatment,resistance
